Data: paper PMC6934700, “Structure-Guided Design of a Fluorescent Probe for the Visualization of FtsZ in Clinically Important Gram-Positive and Gram-Negative Bacterial Pathogens” (Scientific Reports, 2019)
Read-outs that look alike come from different tables or passages of the source.

Experiments:
E. faecalis (EfsFtsZ) = E. faecalis (EfsFtsZ) (Enterococcus faecalis, UniProt O08439); experiment: Fluorescence anisotropy binding of BOFP to EfsFtsZ; conditions: for Kd: 50 mM Tris-HCl (pH 7.6), 50 mM KCl, 0.1 µM BOFP
Method: (§1) Fluorescence anisotropy experiments were performed using an AVIV model ATF105 spectrofluorometer at 15, 25, or 37 °C. In these experiments, bandwidths were set to 4 nm in both the excitation and emission directions, with the excitation and emission wavelengths being set at 488 nm and 510 nm, respectively. BOFP (0.1 µM) was titrated with increasing concentrations (ranging from 0 to 12 µM) of FtsZ in 120 µL of buffer containing 50 mM Tris-HCl (pH 7.6) and 50 mM KCl. After each protein addition, the samples were equilibrated for 3 minutes, whereupon the fluorescence anisotropy was measured.
(§2) In this equation, r0 is the anisotropy of the protein-free compound, r∞ is the anisotropy of the compound in the presence of an infinite concentration of FtsZ, [C]tot is the total concentration of the compound, and [P]tot is the total concentration of protein with each addition. These analyses yielded the equilibrium dissociation constant (Kd) for each binding reaction.
(§3) The binding free energy (ΔG) at temperature T was derived from the corresponding Kd value determined at T using the following relationship:2 ΔG=−RTln(1/Kd)
(§4) The binding enthalpy (ΔH) and entropy (ΔS) were derived from linear fits of the ln(1/Kd) vs. 1/T plots shown in Figs. 3f and 5e using the following relationship:3 ln(1/Kd)=−ΔH/R(1/T)+ΔS/R

S. pneumoniae (SpnFtsZ) = target: T1, S. pneumoniae (SpnFtsZ) (Streptococcus pneumoniae, UniProt A0A0H2ZNE0); experiment: Fluorescence anisotropy binding of BOFP to SpnFtsZ; conditions: for Kd: 50 mM Tris-HCl (pH 7.6), 50 mM KCl, 0.1 µM BOFP
T1 sequence (A0A0H2ZNE0 1-419): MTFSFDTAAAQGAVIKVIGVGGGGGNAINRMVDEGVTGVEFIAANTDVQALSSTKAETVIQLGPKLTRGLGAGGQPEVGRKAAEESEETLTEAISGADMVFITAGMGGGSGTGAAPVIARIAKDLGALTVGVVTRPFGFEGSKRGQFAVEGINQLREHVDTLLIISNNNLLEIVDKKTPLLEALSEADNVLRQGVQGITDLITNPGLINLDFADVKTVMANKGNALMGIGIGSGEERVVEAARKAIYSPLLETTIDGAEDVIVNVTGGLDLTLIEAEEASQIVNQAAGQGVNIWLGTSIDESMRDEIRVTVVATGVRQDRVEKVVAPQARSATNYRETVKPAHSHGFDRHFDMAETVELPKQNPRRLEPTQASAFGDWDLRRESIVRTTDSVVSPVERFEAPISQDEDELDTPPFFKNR
Method: as §1, §2, §3, §4

K. pneumoniae (KpFtsZ) = K. pneumoniae (KpFtsZ) (Klebsiella pneumoniae, UniProt A0A0H3GRR0); experiment: Fluorescence anisotropy binding of BOFP to KpFtsZ; conditions: for Kd: 50 mM Tris-HCl (pH 7.6), 50 mM KCl, 0.1 µM BOFP
Method: as §1, §2, §3, §4
In comparative control experiments, the anisotropy of 0.1 µM BODIPY FL-COOH or BOFP alone or in the presence of SaFtsZ (10 µM), SpyFtsZ (10 µM), KpFtsZ (2 µM), or PaFtsZ (2 µM) was measured at 37 °C in the same buffer described above.

[1] = target: T2, FtsZ in S. aureus NRS705 cells (Staphylococcus aureus, UniProt P0A031); format: cell-based; conditions: 1 µg/mL for 5 minutes
T2 construct: endogenous in cells; host or cells: S. aureus NRS705 (USA100 MRSA)
Method: (§5) All differential interference contrast (DIC) and fluorescence microscopy experiments were conducted using an Olympus BX50 microscope equipped with an X-cite Exacte 200 W mercury lamp, a 100× Olympus UPLSAPO oil immersion objective (1.40 aperture), as well as both Chroma ET-EGFP (FITC/Cy2) and ET mCherry, Texas Red filters. Images were captured using a QImaging Retiga R3 charge-coupled device (CCD) camera and the Ocular-Version 2.0 software package (QImaging).
(§6) For visualizing FtsZ in Gram-positive bacteria using BOFP, the bacterial cells were grown to log-phase in media suitable for each individual pathogen. Specifically, S. aureus NRS705 (MRSA) was grown in tryptic soy broth (TSB), E. faecalis ATCC 29212 and E. faecium ATCC 19434 were grown in lactobacilli MRS broth, S. agalactiae ATCC 12386 and S. pneumoniae ATCC 49619 were grown in TH broth, and S. pyogenes ATCC 19615 was grown in CAMH broth supplemented with 3% (v/v) LHB. For each Gram-positive bacterial strain, a total of 1 mL of cell culture was centrifuged at 15,000 × g for 1 minute and washed 2–3 times with 1 mL of PBS. After the final wash, the pelleted cells were resuspended in 500 µL of PBS containing 1 µg/mL of BOFP and incubated in the dark for 5 minutes at room temperature. The cells were then centrifuged at 15,000 × g for 1 minute, washed twice with 1 mL of PBS, and subsequently resuspended in 200 µL of PBS. […]

[2] = target: T3, FtsZ in E. faecalis ATCC 29212 cells (Enterococcus faecalis, UniProt O08439); experiment: FtsZ visualization by fluorescence microscopy in live cells; format: cell-based; conditions: 1 µg/mL for 5 minutes
T3 construct: host or cells: E. faecalis ATCC 29212
Method: as §5, §6

[3] = system: FtsZ in S. agalactiae ATCC 12386 cells; experiment: as above; format: cell-based, Streptococcus agalactiae; conditions: 1 µg/mL for 5 minutes
Method: as §5, §6

[4] = system: FtsZ in S. pneumoniae ATCC 49619 cells; experiment: as above; format: cell-based, Streptococcus pneumoniae; conditions: 1 µg/mL for 5 minutes
Method: as §5, §6

[5] = calculated at T = 310 K (37 °C) from Kd
[6] = from linear fit of ln(1/Kd) vs. 1/T

Sequence of K. pneumoniae (KpFtsZ) (A0A0H3GRR0 entry or part of it): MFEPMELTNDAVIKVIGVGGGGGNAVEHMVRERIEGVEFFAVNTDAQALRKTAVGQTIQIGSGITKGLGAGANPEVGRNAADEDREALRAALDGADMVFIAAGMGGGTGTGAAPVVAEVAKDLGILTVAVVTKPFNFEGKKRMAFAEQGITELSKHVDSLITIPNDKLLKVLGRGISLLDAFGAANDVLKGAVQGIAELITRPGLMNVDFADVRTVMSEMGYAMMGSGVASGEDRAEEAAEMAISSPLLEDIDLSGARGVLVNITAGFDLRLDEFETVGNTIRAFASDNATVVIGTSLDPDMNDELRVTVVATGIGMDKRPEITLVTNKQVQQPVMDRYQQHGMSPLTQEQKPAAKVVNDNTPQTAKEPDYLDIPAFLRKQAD
Sequence of E. faecalis (EfsFtsZ) (O08439 whole entry): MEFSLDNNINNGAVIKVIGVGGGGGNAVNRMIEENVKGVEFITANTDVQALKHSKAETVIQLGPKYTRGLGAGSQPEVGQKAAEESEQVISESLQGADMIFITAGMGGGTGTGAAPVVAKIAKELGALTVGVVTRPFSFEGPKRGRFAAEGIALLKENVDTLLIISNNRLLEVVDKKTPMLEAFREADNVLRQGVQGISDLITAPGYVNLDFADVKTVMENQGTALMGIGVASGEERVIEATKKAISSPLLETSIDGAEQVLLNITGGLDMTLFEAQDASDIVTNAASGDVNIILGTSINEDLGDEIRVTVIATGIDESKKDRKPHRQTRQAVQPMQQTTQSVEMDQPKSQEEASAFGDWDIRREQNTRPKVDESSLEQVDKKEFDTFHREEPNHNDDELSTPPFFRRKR
T2 sequence (P0A031 whole entry): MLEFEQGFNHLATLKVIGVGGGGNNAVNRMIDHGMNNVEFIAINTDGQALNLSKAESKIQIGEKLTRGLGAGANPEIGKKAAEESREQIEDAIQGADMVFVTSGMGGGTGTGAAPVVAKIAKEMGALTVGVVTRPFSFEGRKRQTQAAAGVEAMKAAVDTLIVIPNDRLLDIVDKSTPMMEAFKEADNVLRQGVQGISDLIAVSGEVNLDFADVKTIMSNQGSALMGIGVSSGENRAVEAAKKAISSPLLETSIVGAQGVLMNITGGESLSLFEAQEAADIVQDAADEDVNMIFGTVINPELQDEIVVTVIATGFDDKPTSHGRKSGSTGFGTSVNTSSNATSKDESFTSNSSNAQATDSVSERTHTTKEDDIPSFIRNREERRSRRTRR
T3 sequence (O08439 whole entry): as the sequence (O08439 whole entry) above

Structure (SMILES): CC1=CC(C)=[N+]2C1=Cc1ccc(CCC(=O)OCC(Oc3ccc(F)c(C(N)=O)c3F)c3nc(-c4ccc(C(F)(F)F)cc4)c(Br)o3)n1[B-]2(F)F (centres unmarked) [BOFP]
- Kd (E. faecalis (EfsFtsZ); Kd - 15 °C, 15 °C): 1.72 ± 0.06 µM
- Kd (E. faecalis (EfsFtsZ); Kd - 25 °C, 25 °C): 3.05 ± 0.25 µM
- Kd (E. faecalis (EfsFtsZ); Kd - 37 °C, 37 °C): 4.62 ± 0.12 µM
- ΔG (E. faecalis (EfsFtsZ); [5]): -7.6 ± 0.1 kcal/mol
- ΔH (E. faecalis (EfsFtsZ); [6]): -7.9 ± 1.0 kcal/mol
- ΔS (E. faecalis (EfsFtsZ); [6]): −1.2 ± 3.3 cal/mol•K
- Kd (S. pneumoniae (SpnFtsZ); 15 °C, read-out: Kd - 15 °C): 3.02 ± 0.3 µM
- Kd (S. pneumoniae (SpnFtsZ); 25 °C, read-out: Kd - 25 °C): 3.49 ± 0.25 µM
- Kd (S. pneumoniae (SpnFtsZ); 37 °C, read-out: Kd - 37 °C): 3.81 ± 0.69 µM
- ΔG (S. pneumoniae (SpnFtsZ); [5]): -7.7 ± 0.1 kcal/mol
- ΔH (S. pneumoniae (SpnFtsZ); [6]): -1.9 ± 0.3 kcal/mol
- Kd (K. pneumoniae (KpFtsZ); 15 °C, read-out: Kd - 15 °C): 0.42 ± 0.05 µM
- Kd (K. pneumoniae (KpFtsZ); 25 °C, read-out: Kd - 25 °C): 0.58 ± 0.04 µM
- Kd (K. pneumoniae (KpFtsZ); 37 °C, read-out: Kd - 37 °C): 0.82 ± 0.04 µM
- ΔG (K. pneumoniae (KpFtsZ); [5]): -8.6 ± 0.1 kcal/mol
- ΔH (K. pneumoniae (KpFtsZ); [6]): -5.4 ± 0.1 kcal/mol
- Fluorescence staining / FtsZ labeling in live cells [1]: bright bands of fluorescence staining are clearly visible at midcell
- Fluorescence staining / FtsZ labeling in live cells [2]: bright bands of fluorescence staining are clearly visible at midcell
- Fluorescence staining / FtsZ labeling in live cells [3]: bright bands of fluorescence staining are clearly visible at midcell
- Fluorescence staining / FtsZ labeling in live cells [4]: bright bands of fluorescence staining are clearly visible at midcell
